From patent publication US20240101570A1 (AMGEN INC., priority 2020, published 2024) come the findings set out here.

The subject of experiment [1] is HCT116 WT cells. In words: HCT116 WT cell proliferation / viability (CellTiter-Glo, 6 days). The experiment is classed as cell-based. The note with it: Homo sapiens, HCT-116, 144 h, HCT116 WT cells, 6 days, CellTiter-Glo; read-out: HCT-116 WT IC50. The procedure, abridged:
(§1)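 Viability read by CellTiter-Glo after 6-day compound exposure of MTAP-null and wild-type HCT116 cells grown in RPMI 1640 with 10% FBS. Dosing used 1:3 steps from 1 or 10 μM (8-9 points) or 1:2 steps from 10 or 50 μM (22 points); IC50 taken where fitted curve crosses 50% of control.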
Background: ATP-based viability assays read luminescence as a measure of living cells.

Experiment [2] deals with HCT116 MTAP null cells. In words: HCT116 MTAP null cell proliferation / viability (CellTiter-Glo, 6 days). Type of experiment: cell-based. The note with it: HCT116-MTAP null, 144 h, HCT116 MTAP null cells, 6 days, CellTiter-Glo; read-out: HCT-116 MTAP null IC50. The procedure, abridged: as §1

As usually defined, the IC50 is the concentration that inhibits the measured activity by half.

Turning to `CN(Cc1ccc(C(F)(F)F)cn1)C(=O)c1cc2c(cc1Cl)nc(N)c1cnn(C)c12` [Example 791, 4-amino-7-chloro-N,1-dimethyl-N-((5-(trifluoromethyl)-2-pyridinyl)methyl)-1H-pyrazolo[4,3-c]quinoline-8-carboxamide], the IC50 in experiment [1] was 341 nM; in experiment [2], 11 nM.

`N#Cc1ccc(CN(C(=O)c2cc3c4c(c(N)nc3cc2F)COC4)C2CC2)nc1` [Example 476, 4-amino-N-((5-cyano-2-pyridinyl)methyl)-N-cyclopropyl-7-fluoro-1,3-dihydrofuro[3,4-c]quinoline-8-carboxamide]: the IC50 in experiment [1] was 4460 nM; in experiment [2], 1370 nM.

For `CN(Cc1ccc(-c2cnn(C(F)(F)F)c2)cn1)C(=O)c1cc2c(cc1F)nc(N)c1cnn(C)c12` [Example 789, 4-amino-7-fluoro-N,1-dimethyl-N-((5-(1-(trifluoromethyl)-1H-pyrazol-4-yl)-2-pyridinyl)methyl)-1H-pyrazolo[4,3-c]quinoline-8-carboxamide], the IC50 in experiment [1] amounted to 6930 nM; in experiment [2] it was 83 nM.

On to `C[C@H](c1ncccn1)N(Cc1cc2c(cn1)OCCC2)C(=O)c1ccc2nc(N)c3c(c2c1)COC3` [Example 469, 4-amino-N-(3,4-dihydro-2H-pyrano [2,3-c]pyridin-6-ylmethyl)-N-((1R)-1-(2-pyrimidinyl)ethyl)-1,3-dihydrofuro[3,4-c]quinoline-8-carboxamide], for which the values for the IC50 in experiment [1] and in experiment [2] were 550 nM and 25 nM, respectively.

In the case of `Nc1nc2cnc(C(=O)N(Cc3ccc(C4CC4)cn3)C3CC3)cc2c2c1COC2` [Example 348, 4-amino-N-cyclopropyl-N-((5-cyclopropyl-2-pyridinyl)methyl)-1,3-dihydrofuro[3,4-c][1,7]naphthyridine-8-carboxamide], the IC50 is 9040 nM in experiment [1] and 155 nM in experiment [2].

Take `COCC(C)N(Cc1ccc(C(F)(F)F)nn1)C(=O)c1cc2c3c(c(N)nc2cn1)[C@@H](C)OC3` (mixture of isomers) [Example 314, (3R)-4-amino-N-((2R)-1-methoxy-2-propanyl)-3-methyl-N-((6-(trifluoromethyl)-3-pyridazinyl)methyl)-1,3-dihydrofuro[3,4-c][1,7]naphthyridine-8-carboxamide and (3R)-4-amino-N-((2S)-1-methoxy-2-propanyl)-3-methyl-N-((6-(trifluoromethyl)-3-pyridazinyl)methyl)-1,3-dihydrofuro[3,4-c][1,7]naphthyridine-8-carboxamide]: the values for the IC50 in experiment [1] and in experiment [2] were 15200 nM and 254 nM, respectively.

For `CN(Cc1ccc(S(F)(F)(F)(F)F)cc1)C(=O)c1cc2c(cc1F)nc(N)c1c2cnn1C` [Example 515, 4-amino-7-fluoro-N,3-dimethyl-N-(4-(pentafluoro-lambda~6~- sulfanyl)benzyl)-3H-pyrazolo[3,4-c]quinoline-8-carboxamide], the IC50 in experiment [1] was 3350 nM; in experiment [2], 80 nM.

Turning to `CC(C)N(Cc1ccc(C2CC2)cn1)C(=O)c1cc2c3c(c(N)nc2cc1Cl)COC3` [Example 379, 4-amino-7-chloro-N-((5-cyclopropyl-2-pyridinyl)methyl)-N-(2-propanyl)-1,3-dihydrofuro[3,4-c]quinoline-8-carboxamide], the IC50 came to 764 nM in experiment [1] and 25 nM in experiment [2].

As to `Cn1cc(N(Cc2ccc(C(F)F)cn2)C(=O)c2cc3c4c(c(N)nc3cn2)COC4)cn1` [Example 691, 4-amino-N-((5-(difluoromethyl)-2-pyridinyl)methyl)-N-(1-methyl-1H-pyrazol-4-yl)-1,3-dihydrofuro[3,4-c][1,7]naphthyridine-8-carboxamide], the IC50 in experiment [1] amounted to 3880 nM; in experiment [2] it was 127 nM.

On to `Nc1nc2ccc(C(=O)N(Cc3ccc(C(F)(F)F)nn3)C3CC(F)(F)C3)cc2c2c1COC2` [Example 660, 4-amino-N-(3,3-difluorocyclobutyl)-N-((6-(trifluoromethyl)-3-pyridazinyl)methyl)-1,3-dihydrofuro[3,4-c]quinoline-8-carboxamide], for which the IC50 in experiment [1] is more than 10000 nM; in experiment [2], 354 nM.

On to `CC(C)CN(Cc1ccc(C(F)(F)F)cn1)C(=O)c1ccc2nc(N)c3c(c2c1)CCC3` [Example 611, 4-amino-N-(2-methylpropyl)-N-((5-(trifluoromethyl)-2-pyridinyl)methyl)-2,3-dihydro-1H-cyclopenta[c]quinoline-8-carboxamide], for which the IC50 in experiment [1] was 474 nM; in experiment [2], 84 nM.

For `C[C@H]1OCc2c1c(N)nc1ccc(C(=O)N(C)Cc3ccc(C(F)(F)F)cn3)cc21` [Example 376, (3R)-4-amino-N,3-dimethyl-N-((5-(trifluoromethyl)-2-pyridinyl)methyl)-1,3-dihydrofuro[3,4-c]quinoline-8-carboxamide], the values for the IC50 in experiment [1] and in experiment [2] were 15200 nM and 222 nM, respectively.

For the molecule `CCN(Cc1ccc(C(F)(F)F)nn1)C(=O)c1cc2c3c(c(N)nc2cc1F)[C@@H](C)OC3` [Example 559, (3R)-4-amino-N-ethyl-7-fluoro-3-methyl-N-((6-(trifluoromethyl)-3-pyridazinyl)methyl)-1,3-dihydrofuro[3,4-c]quinoline-8-carboxamide], the half-maximal inhibitory concentration (IC50) in experiment [1] was 1180 nM; in experiment [2] it was 30 nM.

For the molecule `C[C@@H](c1ccc(C(F)(F)F)cn1)N(C(=O)c1ccc2nc(N)c3c(c2c1)COC3)C1CC1` [Example 735, 4-amino-N-cyclopropyl-N-((1S)-1-(5-(trifluoromethyl)-2-pyridinyl)ethyl)-1,3-dihydrofuro[3,4-c]quinoline-8-carboxamide], the IC50 is 36200 nM in experiment [1] and 5500 nM in experiment [2].

With `C[C@H]1OCc2c1c(N)nc1ccc(C(=O)N(C)Cc3ccc(C#N)cn3)cc21` [Example 386, (3R)-4-amino-N-((5-cyano-2-pyridinyl)methyl)-N,3-dimethyl-1,3-dihydrofuro[3,4-c]quinoline-8-carboxamide], the results for the IC50 in experiment [1] and in experiment [2] were 30300 nM and 455 nM, respectively.

Take `CCN(Cc1ccc(C2CC2)cn1)C(=O)c1cc2c(cn1)nc(N)c1cnn(C)c12` [Example 541, 4-amino-N-((5-cyclopropyl-2-pyridinyl)methyl)-N-ethyl-1-methyl-1H-pyrazolo[4,3-c][1,7]naphthyridine-8-carboxamide]: the results for the IC50 in experiment [1] and in experiment [2] were 548 nM and 37 nM, respectively.

As to `CC(C)N(C(=O)c1cc2c3c(c(N)nc2cn1)COC3)[C@H](C)c1ccc(C(F)(F)F)cn1` (single isomer, unassigned) [Example 848], the figures for the IC50 in experiment [1] and in experiment [2] were 11400 nM and 453 nM, respectively.

Turning to `C[C@H](c1ncccn1)N(Cc1ccc(C(F)(F)F)cn1)C(=O)c1ccc2nc(N)c3c(c2c1)CCC3` [Example 610, 4-amino-N-((1R)-1-(2-pyrimidinyl)ethyl)-N-((5-(trifluoromethyl)-2-pyridinyl)methyl)-2,3-dihydro-1H-cyclopenta[c]quinoline-8-carboxamide], the results for the IC50 in experiment [1] and in experiment [2] were 135 nM and 6 nM, respectively.

As for `CCN(Cc1ccc(S(F)(F)(F)(F)F)cc1)C(=O)c1ccc2nc(N)c3cnn(C)c3c2c1` [Example 564, 4-amino-N-ethyl-1-methyl-N-(4-(pentafluoro-lambda~6~- sulfanyl)benzyl)-1H-pyrazolo[4,3-c]quinoline-8-carboxamide], the IC50 in experiment [1] worked out at 925 nM; in experiment [2] it was 21 nM.
